Laboratory results taken from patent publication US20250369032A1 (priority 2023, published 2025).
Several values for one entry are separate records, joined by “and”; a condition that tells them apart may be missing. Identical values can stand only once. Like-named read-outs stand apart in the source and are kept apart here.

How the values were obtained:
skin = settings: cited from earlier work
alkaline phosphatase [1] = target: T1, alkaline phosphatase (Bos taurus, UniProt P19111)
Experimental: Two different dosing concentrations were evaluated, 10 μL of test chemical added to 90 μL of alkaline phosphatase reaction reagent and 50 μL of test chemical added to 50 μL of alkaline phosphatase reaction reagent; all aliquoted in 96-well plates.
• 1. Alkaline phosphatase reaction reagent (fresh, 1:100) • a. Take 4 mL of AP (1:10) stock solution, add to 36 mL PBS. Vortex mix and then invert to mix 10 times • 2. Prepare alkaline phosphatase reaction reagent for every condition • a. 200 μL AP (1:10) in 1.8 mL PBS • b. […] 200 μL AP (1:10) in 1.8 mL Acetone • 3. Prepare 96-well plates for dosing • 4. Prepare 96-well plates for PNPP reading (3 wells for each test chemical) • a. Aliquot with 200 μL PNPP
• 1. Set 1 • a. 10 μL chemical added to 90 μL AP reaction reagent • 2. Set 2 • a. 50 μL chemical added to 50 μL AP reaction reagent • 3. Incubate for 3 hours • a. To the prepared 96-well plate with 200 μL PNPP aliquoted, add 20 μL • b. […] To the prepared 96-well plate with 200 μL PNPP aliquoted, add 20 μL • b.
In our next study, we focused on ethanol and buffered saline (potassium chloride, potassium phosphate monobasic, sodium chloride, sodium phosphate dibasic) as our solvents.
• 1. Alkaline phosphatase reaction reagent • a. 1:100 • i. PBS: Take 400 μL of AP (1:10) stock solution, add to 3.6 mL PBS. Vortex mix and then invert to mix 10 times • ii. […] Vortex mix and then invert to mix 10 times • b. 1:1000 • i. PBS: Take 400 μL of AP (1:100) stock solution, add to 3.6 mL PBS. Vortex mix and then invert to mix 10 times • ii. […] Vortex mix and then invert to mix 10 times • 2. Prepare 0.5 mL microcentrifuge tubes for dosing • a. One set for room temperature, one set for 37° C. • 3. Prepare 96-well plates for PNPP reading (3 wells for each test chemical) • a. Aliquot with 200 μL PNPP
• 1. In each microcentrifuge tube for each condition, add 180 μL of the corresponding AP reaction reagent • 2. Add 20 μL of the test chemical to each microcentrifuge tube • 3. Incubate for 4 hours (one set at room temperature; one set at 37° C.) • 4. To prepared 96-well plates with 200 μL PNPP aliquoted, add 20 μL of each microcentrifuge tube to the corresponding well • 5.

alkaline phosphatase [2] = target: T1, alkaline phosphatase; type: biochemical; design: purchased Sigma Aldrich, St. Louis, MO P0114 (original source); P7640 (second source, 'new AP' condition only)
alkaline phosphatase [3] = target: T1, alkaline phosphatase; type: biochemical; design: purchased Sigma Aldrich, St. Louis, MO P0114 (original source); P7640 (second source, 'new AP' condition only); remark: listed apart in the source
From the text: Our next study focused on an in vitro method of detecting the potential of dermal corrosives to inhibit nonspecific phosphatases that may be released from the skin. We decided to test pure […] instead of relying on endogenous skin phosphatase. Alkaline phosphatase (Sigma Aldrich, St. Louis, MO) was purchased and suspended to make the reaction reagent (10,000 units). […] We note that the ratio used was 0.1 g/ml or 10% chemical-which is far in excess of any pharmaceutical applications. We further note that pharmaceutical enzyme inhibition tests, studies an use involve highly specific active site binding and these assays are conducted at ratios of micrograms-femtograms per ml. These studies are done at these ranges because these are the realistic concentrations for drug applications and therapeutics. […] So when a 50 Kg human consumes the tables, the tissues will be exposed at a 5 mg/50 kg=0.1 mg/kg=0.0000001 g/ml.
Next two quantitative methods were evaluated: 1) using the discs parts from our OptiSafe™ test method and 2) directly into the 24-well plate.
• 1. Alkaline phosphatase reaction reagent • a. Take 1 vial of AP, add 1 mL of PBS, mix by pipette/re-pipette 10 times • b. To a 50 mL conical tube, add 1 mL of the AP solution prepared above and 40 mL of PBS • 2. Prepare two 24-well plates (1 with discs, 1 without discs) • 3. […] Aliquot 200 μL PNPP and PBS
• 1. Plate 1 (No Discs) • a. Add 1.25 mL from the prepared PBS-AP conical tube to each well (11 wells) • b. Add 100 μL of the test material to the well, mix with the same pipette tip, dispose and repeat for the rest of the test materials • c. Wrap the plate in saran wrap and place into the container • 2. Plate 2 (Discs) • a. Configure the 11 discs in the plate so the plate cover is stable • b. Add 1.25 mL from the prepared PBS-AP conical tube to each well (11 wells) • c. Add 100 μL of the test material to the center of the disc and repeat for the rest of the test materials • d. Put the plate cover on and place into the container • 3. […] Incubate for 1 hour
For the new study, the alkaline phosphatase was suspended in phosphate buffered saline (PBS) to make the reaction reagent. Then, 100 μL of the test chemical is added directly into the corresponding wells on a 24-well plate with 1.25 mL of alkaline phosphatase reaction reagent already aliquoted.
• 1. Alkaline phosphatase reaction reagent • a. Take 1 vial of AP, add 1 mL of PBS, mix by pipette/re-pipette 10 times • b. To a 50 mL conical tube, add 1 mL of the AP solution prepared above and 40 mL of PBS • 2. Prepare two 24-well plates • 3. […] Aliquot with 200 μL PNPP and PBS • 4. Prepare glass vials Repeat Procedure from Jan. […] 24-well plate • a. Add 1.25 mL from the prepared PBS-AP conical tube to each well (11 wells) • b. Add 100 μL of the test material to the well, mix with the same pipette tip, dispose and repeat for the rest of the test materials • c. Wrap the plate in saran wrap and place into the container • 2. […] To the prepared 96-well plate with 200 μL PNPP or PBS, add 20 μL from the 24-well plate • 4. Incubate for 1 hour • 5.
• 1. 24-well plate • a. Add 1.25 mL from the prepared PBS-AP conical tube to each well (11 wells) • b. Add 100 μL of the test material to the well, mix with the same pipette tip, dispose and repeat for the rest of the test materials • c. After 10 minutes, mix each well • 2.

[4] = tested on: endogenous skin phosphatase; type: biochemical, porcine; settings: optical density compared to the naïve condition
Experimental: Our next studies involved applying the test substance (500 μL) directly to the epidermis side of previously frozen porcine skin (Spear Products, Coopersburg, PA) that is placed in a holder that only exposes the epidermis side for 30 minutes, adding phosphate buffered saline (PBS) with added sodium azide (metabolic inhibitor that ensure no viable tissue), then aliquoting into cuvettes to read at an optical density of 300 nm. […] So, at the end of the initial studies described above, almost out of frustration, we tried to probe for released phosphatase activity using p-Nitrophenyl phosphate disodium salt (PNPP; Sigma Aldrich, St. Louis, MO) substrate solution to detect any presence of phosphatase.
• 1. Thaw 2 pieces of frozen porcine skin • a. Punch out as many skin discs and mount in holders • 2. Label cuvettes (3 for each chemical)
• 1. Add 500 μL of test chemical to holder; incubate at room temperate for 30 minutes • 2. After 30 minutes, add 2 mL of PBS-Azide to both the holder containing the test chemical; forcefully pipette and re-pipette 10 times • 3. From the holder, aliquot 400 μL into 3 cuvettes; forcefully pipette and re-pipette 3 times before dispensing into cuvettes
Skin corrosion by GHS Category 1 dermal corrosive chemicals results in the disintegration of the epidermis into the dermis.

[5] = skin, chemical lists of the protocols
[6] = 4 mL glass vials, 30 μL into 300 μL, 1:100, 4 hours room temperature, 3 mL PNPP 1 hour
[7] = 1:100, 20 μL into 180 μL, 0.5 mL microcentrifuge tubes, 4 hours RT, PNPP 60 min, 405 nm
[8] = average of R1-R3, 1:100, 20 μL into 180 μL, 4 hours RT, PNPP 60 min, 405 nm
[9] = original alkaline phosphatase 1:1, 18 hours room temperature
[10] = original alkaline phosphatase 1:100 (100 units), 100 μL into 1 mL, 18 hours room temperature, PNPP 1 hour

T1 sequence (P19111 20-506): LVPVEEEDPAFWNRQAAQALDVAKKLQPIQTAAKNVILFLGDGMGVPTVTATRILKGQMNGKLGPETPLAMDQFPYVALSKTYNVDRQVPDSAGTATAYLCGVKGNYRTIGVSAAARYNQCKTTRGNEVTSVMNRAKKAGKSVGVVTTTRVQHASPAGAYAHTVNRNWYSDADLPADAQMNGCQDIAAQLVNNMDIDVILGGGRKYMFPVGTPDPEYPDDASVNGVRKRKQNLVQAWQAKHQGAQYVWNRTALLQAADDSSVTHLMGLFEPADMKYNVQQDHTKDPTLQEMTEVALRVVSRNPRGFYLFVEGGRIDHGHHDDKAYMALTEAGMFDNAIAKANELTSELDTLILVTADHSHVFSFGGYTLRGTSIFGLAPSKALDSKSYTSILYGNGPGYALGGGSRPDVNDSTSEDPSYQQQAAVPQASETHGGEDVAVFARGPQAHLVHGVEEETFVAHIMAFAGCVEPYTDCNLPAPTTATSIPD

| SMILES | in vivo GHS (skin; [5]) | OD405 readings (FIG. 11D) (alkaline phosphatase [1]; [6]) | A1-Results R1 (alkaline phosphatase [2]; [7]) | A1-Results R3 (alkaline phosphatase [2]; [7]) | OD405 readings (FIG. 11B) (alkaline phosphatase [2]; [6]) | A1-Results AVG (alkaline phosphatase [2]; [8]) | prediction based on OD405 values (FIG. 6B) (alkaline phosphatase [2]; [9]) | OD405 readings (FIG. 6D) (alkaline phosphatase [2]; [10]) | also measured |
| --- | --- | --- | --- | --- | --- | --- | --- | --- | --- |
| CC(C)N(C)C [Dimethylisopropylamine] | Cat. 1B/1C | 2.926 and 2.922 and 2.852 | 3.423 | 3.485 | 3.354 and 3.466 and 3.502 | 3.458 | incorrectly predicted | 3.466 and 3.502 |  |
| NCCO [Ethanolamine] |  |  |  |  |  |  |  |  | optical density readings (FIG. 3B) (alkaline phosphatase [3]): 0.174 and 0.185 and 0.175; percent of phosphatase measured (first reading) [4]: 20.1%; percent of phosphatase measured (second reading) [4]: 19.6%; percent of phosphatase measured, average [4]: 19.9%; Corrosive (skin; rabbit, in vivo): Yes; optical density readings (FIG. 3A) (alkaline phosphatase [2]): 0.170 and 0.166 and 0.172 |
| CN(C)Cc1ccccc1 [N,N-Dimethylbenzylamine] |  |  |  |  |  |  |  |  | OD405 reading (FIG. 9B) (alkaline phosphatase [1]): 0.587; OD405 readings (FIG. 11D) (alkaline phosphatase [1]): 3.429 and 3.249 and 3.164; A1-Results AVG (alkaline phosphatase [2]): 3.240; A1-Results R1 (alkaline phosphatase [2]): 3.265; A1-Results R3 (alkaline phosphatase [2]): 3.230; OD405 readings (FIG. 6D) (alkaline phosphatase [2]): 3.431 and 3.502 and 3.61; OD405 readings (FIG. 11B) (alkaline phosphatase [2]): 3.360 and 3.238 and 3.273; prediction based on OD405 values (FIG. 6B) (alkaline phosphatase [2]): incorrectly predicted |
| CCCCCCCCC=O [Nonyl aldehyde] | Cat. 2 (Category 2 (irritation; mean score of ≥2.3 and ≤4.0 for erythema/eschar or for oedema in at least 2 of 3 tested animals at 24, 48, and 72 hours or inflammation that persists to the end of 14 days)) |  | 3.393 | 3.050 |  | 3.296 |  |  | OD405 reading (FIG. 7A) (alkaline phosphatase [1]): 1.589; OD405 reading (FIG. 7B) (alkaline phosphatase [1]): 3.078 |
| CCCCCCCC(=O)O [Octanoic Acid] |  | 3.283 and 3.408 and 3.220 | 0.741 | 0.860 | 1.427 and 1.415 and 1.416 | 0.797 | incorrectly predicted | 3.462 and 3.491 and 3.333 | in vivo GHS (skin; rabbit, in vivo): Cat. 1B/1C |
| [K+].[OH-] [Potassium hydroxide (10%)] | Cat. 1B (Category 1B (corrosive responses in at least one animal during exposure period of ≤1 hour)) |  | 0.118 | 0.112 |  | 0.114 |  |  | prediction based on OD405 values (FIG. 6D) (alkaline phosphatase [3]; original alkaline phosphatase 1:100 dilution): correctly predicted; optical density readings (FIG. 4) (alkaline phosphatase [3]; repeat, without discs, 18 hours 37° C., PNPP 1 hour, 405 nm): 0.123 and 0.124 |
